# Experiments:
# 293 cells [1] = assay: β-galactosidase expression after transfection (pCMV-SPORT-β-gal, LIPOFECTAMINE 2000) of 293 cells in monolayer culture, 24-well plates; type: cell-based, human; details: Table 8, replacement compounds 25 μM in test media, 24 hrs post-transfection
# Method: When cultured in suspension, cells were split to 3×10^5 viable cells per ml at each passage. On the week of transfection cells were seeded at 3×10^5 viable cells per ml. After ˜48 hrs of growth (day 2) cells were vortexed for 30 seconds and counted and appropriate volumes used for transfection as described in procedures below.
# In addition, the base media comprises 2.4 g/L NaHCO3, 2.98 g/L Hepes, 4 mM L-glutamine and 3 ml/L PLURONIC F-68 (Invitrogen Corp., Carlsbad, Calif.).
# The osmolarity is adjusted to from about 275-310 mOsm, preferably about 280 mOsm and the pH is adjusted to from about 7.0 to about 7.45 preferably about 7.4 respectively.
# Three wells were set up for each treatment. A volume of media corresponding to 3×10^6 viable cells was centrifuged. The supernatant was removed and the cells re-suspended in 600 μl test media. Each well of a 24 well plate received 200 μl of the re-suspended cells.
# To prepare the nucleic acid for the transfection experiments, 93 μl test media+3 μl DNA+24 μl LIPOFECTAMINE 2000 were combined in a microfuge tube and complexed for 30 minutes. A 40 μl aliquot of complex was added to each well. 250 μl test media was added to each well five hours after addition of complex. The final cell concentration was 1×10^6 viable cells per well; the final DNA concentration was 1 μg per 1×10^6 viable cells and the final LIPOFECTAMINE 2000 concentration was 8 μl per 1×10^6 viable cells.
# 24 hrs post-transfection, samples were collected for β-galactosidase quantitation. The contents of duplicate wells were pooled (i.e. ˜2×10^6 cells for the assay) for each sample and transferred to a microfuge tube. The cells were centrifuged, the supernatant was removed and the cells were re-suspended in 1 ml of D-PBS. The cells were pelleted a second time and re-suspended in 1 ml of D-PBS. The samples were then stored at −70° C. Prior to the assay for β-galactosidase, samples were freeze-thawed a total of five times.
# 293 cells were grown in monolayer culture in the presence of the various replacement compounds indicated and transfection experiments performed as described above. The results are shown in Table 8 and the values are β-galactosidase activity expressed as nanograms of β-galactosidase per 2×10^6 cells. A comparison was made between the transfection efficiency of DNA complexes formed in D-MEM medium and DNA complexes formed in test medium. […]
# For cells transfected in 24-well plates, cells densities used were 1×10^6 viable cells per well.
# 293 cells [2] = assay: Growth and adaptation of 293 cells to test media before transfection; type: cell-based, human; details: for support of growth at the ZnSO4 concentrations tested: Example 7, ethyl maltol 50 μM, 2-hydroxypyridine 25 μM, DPTA.FeSO4 50 μM, ZnSO4 0.5×-5×
# Method: 293 cells were grown in monolayer culture in base medium supplemented with the indicated replacement compounds at the concentrations specified in Table 9.
# Sp2/0 cells = assay: Effect of replacement compounds on the growth of Sp2/0 cells in CD Hybridoma medium without transferrin, three passages; type: cell-based; details: third passage
# CHO cells = assay: Effect of replacement compounds on the growth of CHO cells in CD CHO medium without transferrin, three passages; type: cell-based, Chinese hamster; details: third passage
# How it was run: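 CHO cells seeded at 1×10^5 viable cells/mL in transferrin-free CD CHO medium, 37 °C, 8% CO2, subcultured every 4 days for three passages. Compounds tested alone or complexed with ferric chloride or ferrous sulfate at 25, 50 and 100 μM; growth as mean percentage of the 5 μg/mL holo-transferrin control at the third passage, duplicate cultures.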
# [3] = 25 μM, control 5 μg/mL human holo-transferrin
Compound,"β-galactosidase activity; D-MEM used for complexing, Test media to re-suspend cells (293 cells [1])",β-galactosidase activity; Test Media used for complexing and to re-suspend cells (293 cells [1]),"support of growth (293 cells [2]; Example 6, 100 μM)",support of growth at the ZnSO4 concentrations tested (293 cells [2]),mean percentage of control growth (Sp2/0 cells; [3]),mean percentage of control growth (Sp2/0 cells; 50 μM),mean percentage of control growth (Sp2/0 cells; 100 μM),mean percentage of control growth (CHO cells; [3]),mean percentage of control growth (CHO cells; 50 μM),mean percentage of control growth (CHO cells; 100 μM),"growth in the presence of ZnSO4 (293 cells [2]; Example 6, in combination with ZnSO4 instead of insulin)"
CCc1occc(=O)c1O [2-Ethyl-3-Hydroxy-4-Pyrone],378 nanograms of β-galactosidase per 2×10^6 cells,1827 nanograms of β-galactosidase per 2×10^6 cells,did not support growth,supported growth at all concentrations of ZnSO4 tested,0 percentage of control growth,75 percentage of control growth,116 percentage of control growth,9 percentage of control growth,60 percentage of control growth,113 percentage of control growth,
Diethylenetriamine Penta-Acetic Acid•Ferrous Sulfate,234 nanograms of β-galactosidase per 2×10^6 cells,720 nanograms of β-galactosidase per 2×10^6 cells,,"supported growth at concentrations of 1×, 2× and 5× ZnSO4, but not at 0.5×",54 percentage of control growth,90 percentage of control growth,91 percentage of control growth,135 percentage of control growth,137 percentage of control growth,147 percentage of control growth,acceptable

# Reference: patent US9879243B2, “Culture medium for cell growth and transfection” (LIFE TECHNOLOGIES CORPORATION, priority 2001, dated 2018)
